Test results as given in PubChem BioAssay AID1845200 (Molecular Pharmacology Branch, DTP, NCI, 2023).
Where “and” joins values, the source holds several entries; their conditions need not be identical. Equal values may be shown once. Blank lines part the entries; values can stand above or below the compound they belong to.

Test system: ASPS-1 complex tumor spheroids, viability
Experiment: Anticancer human tumor ASPS-1 cell line growth inhibition;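 note: spheroids exposed to agents for 7 days after 3 days of growth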;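 for viability, T/C: 100% = DMSO vehicle treated spheroids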
Conditions: for viability, T/C: stronger effect = lower value
Summary of the method: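 Complex spheroids of malignant cells with endothelial cells and mesenchymal stem cells; agents alone or combined, from near clinical Cmax (or 10 microM if unknown) down in half-log steps, 0.25% DMSO final.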

[1] = curve of first compound, second compound 30 pM
[2] = curve of first compound, second compound 94.9 pM
[3] = curve of first compound, second compound 0.0003 µM
[4] = curve of first compound, second compound 0.000949 µM
[5] = curve of first compound, second compound 0.003 µM

SMILES: COc1ccc([C@@H](O)c2cc(-c3ncnc4cc(N5CCOCC5)ccc34)c(F)cc2Cl)nn1 + COc1cc2c(cc1O)CCNC21CSC2c3c(OC(C)=O)c(C)c4c(c3C(COC1=O)N1C(O)C3Cc5cc(C)c(OC)c(O)c5C(C21)N3C)OCO4
- IC50 [1]: 6.58 µM
- IC50 [2]: 4.8 µM
- IC50 [3]: 1.52 µM
- IC50 [4]: 0.379 µM
- IC50 [5]: < 0.0316 µM
- viability, T/C (second compound 30 pM, first compound 0.0316 µM): 103%
- viability, T/C (second compound 30 pM, first compound 0.1 µM): 106%
- viability, T/C (second compound 30 pM, first compound 0.316 µM): 103%
- viability, T/C (second compound 30 pM, first compound 1 µM): 93.2%
- viability, T/C (second compound 30 pM, first compound 3.16 µM): 77%
- viability, T/C (second compound 30 pM, first compound 10 µM): 34.7%
- viability, T/C (second compound 94.9 pM, first compound 0.0316 µM): 108%
- viability, T/C (second compound 94.9 pM, first compound 0.1 µM): 106%
- viability, T/C (second compound 94.9 pM, first compound 0.316 µM): 101%
- viability, T/C (second compound 94.9 pM, first compound 1 µM): 96.7%
- viability, T/C (second compound 94.9 pM, first compound 3.16 µM): 62.6%
- viability, T/C (second compound 94.9 pM, first compound 10 µM): 27.5%
- viability, T/C (second compound 0.0003 µM, first compound 0.0316 µM): 103%
- viability, T/C (second compound 0.0003 µM, first compound 0.1 µM): 108%
- viability, T/C (second compound 0.0003 µM, first compound 0.316 µM): 97.7%
- viability, T/C (second compound 0.0003 µM, first compound 1 µM): 68.3%
- viability, T/C (second compound 0.0003 µM, first compound 3.16 µM): 18.7%
- viability, T/C (second compound 0.0003 µM, first compound 10 µM): 5.37%
- viability, T/C (second compound 0.000949 µM, first compound 0.0316 µM): 79.3%
- viability, T/C (second compound 0.000949 µM, first compound 0.1 µM): 81%
- viability, T/C (second compound 0.000949 µM, first compound 0.316 µM): 55%
- viability, T/C (second compound 0.000949 µM, first compound 1 µM): 17.5%
- viability, T/C (second compound 0.000949 µM, first compound 3.16 µM): 1.86%
- viability, T/C (second compound 0.000949 µM, first compound 10 µM): 0.35%
- viability, T/C (second compound 0.003 µM, first compound 0.0316 µM): 22.5%
- viability, T/C (second compound 0.003 µM, first compound 0.1 µM): 19.1%
- viability, T/C (second compound 0.003 µM, first compound 0.316 µM): 9.89%
- viability, T/C (second compound 0.003 µM, first compound 1 µM): 1.71%
- viability, T/C (second compound 0.003 µM, first compound 3.16 µM): 1.27%
- viability, T/C (second compound 0.003 µM, first compound 10 µM): 1.18%

SMILES: COc1cc(C)[nH]c(=O)c1CN1CCc2c(Cl)cc(C(OC)C3COC3)c(Cl)c2C1=O (stereo not drawn)
- viability, T/C (compound 0.0316 µM): 105% and 103% and 99%
- viability, T/C (compound 0.1 µM): 108% and 106% and 105%
- viability, T/C (compound 0.316 µM): 107% and 102% and 100%
- viability, T/C (compound 1 µM): 106% and 97.9% and 96.5%
- viability, T/C (compound 3.16 µM): 104% and 102% and 98%
- viability, T/C (compound 10 µM): 99.3% and 104% and 97.8%
- IC50 (curve of compound): > 10 µM

SMILES: Cn1ncnc1[C@H]1c2n[nH]c(=O)c3cc(F)cc(c23)N[C@@H]1c1ccc(F)cc1 + COc1cc2c(cc1O)CCNC21CSC2c3c(OC(C)=O)c(C)c4c(c3C(COC1=O)N1C(O)C3Cc5cc(C)c(OC)c(O)c5C(C21)N3C)OCO4
- IC50 [1]: > 3 µM
- IC50 [2]: > 3 µM
- IC50 [3]: 2.23 µM
- IC50 [4]: 0.562 µM
- IC50 [5]: < 0.00949 µM
- viability, T/C (second compound 30 pM, first compound 0.00949 µM): 102%
- viability, T/C (second compound 30 pM, first compound 0.03 µM): 93.8%
- viability, T/C (second compound 30 pM, first compound 0.0949 µM): 101%
- viability, T/C (second compound 30 pM, first compound 0.3 µM): 101%
- viability, T/C (second compound 30 pM, first compound 0.949 µM): 89.3%
- viability, T/C (second compound 30 pM, first compound 3 µM): 62.8%
- viability, T/C (second compound 94.9 pM, first compound 0.00949 µM): 97.3%
- viability, T/C (second compound 94.9 pM, first compound 0.03 µM): 97.2%
- viability, T/C (second compound 94.9 pM, first compound 0.0949 µM): 98%
- viability, T/C (second compound 94.9 pM, first compound 0.3 µM): 94%
- viability, T/C (second compound 94.9 pM, first compound 0.949 µM): 88.8%
- viability, T/C (second compound 94.9 pM, first compound 3 µM): 57.5%
- viability, T/C (second compound 0.0003 µM, first compound 0.00949 µM): 86%
- viability, T/C (second compound 0.0003 µM, first compound 0.03 µM): 89.8%
- viability, T/C (second compound 0.0003 µM, first compound 0.0949 µM): 85.2%
- viability, T/C (second compound 0.0003 µM, first compound 0.3 µM): 83.3%
- viability, T/C (second compound 0.0003 µM, first compound 0.949 µM): 75.4%
- viability, T/C (second compound 0.0003 µM, first compound 3 µM): 40.9%
- viability, T/C (second compound 0.000949 µM, first compound 0.00949 µM): 70.3%
- viability, T/C (second compound 0.000949 µM, first compound 0.03 µM): 63.5%
- viability, T/C (second compound 0.000949 µM, first compound 0.0949 µM): 56.7%
- viability, T/C (second compound 0.000949 µM, first compound 0.3 µM): 59.7%
- viability, T/C (second compound 0.000949 µM, first compound 0.949 µM): 45.1%
- viability, T/C (second compound 0.000949 µM, first compound 3 µM): 28.4%
- viability, T/C (second compound 0.003 µM, first compound 0.00949 µM): 21.5%
- viability, T/C (second compound 0.003 µM, first compound 0.03 µM): 21.8%
- viability, T/C (second compound 0.003 µM, first compound 0.0949 µM): 19.4%
- viability, T/C (second compound 0.003 µM, first compound 0.3 µM): 16.6%
- viability, T/C (second compound 0.003 µM, first compound 0.949 µM): 13.3%
- viability, T/C (second compound 0.003 µM, first compound 3 µM): 4.87%

- IC50 (compound alone, run of 11/07/2019): > 100 µM
SMILES: Cn1nnc2c(C(N)=O)ncn2c1=O
- viability, T/C (compound 1 µM): 98.1% [middle of 10 runs]
- viability, T/C (compound 3.16 µM): 103% [middle of 10 runs]
- viability, T/C (compound 10 µM): 92% [middle of 10 runs]
- viability, T/C (compound 31.6 µM): 81% [middle of 10 runs]
- viability, T/C (compound 100 µM): 70.1% [middle of 10 runs]
